Columns and labels:
[1] = system: human promyelocytic cell line (HL60); conditions: HL60, in vitro aspirin vs vehicle-only control; cited from earlier work
[2] = system: non COX-1 dependent platelet function (NCDPF); assay: Platelet function score (PFS) in aspirin challenge study; type: in vivo, human; conditions: for mean difference in Pre vs. Post PFS: before vs 3 hrs after single 325 mg aspirin, p<0.0001; for Post PFS: after first 325 mg dose
Protocol: A group of healthy adult volunteers (HV1) were recruited and a defined set of platelet function measurements, as described below, were made before aspirin (“Pre”) and 3-hrs after (“Post”) a single 325 mg tablet of aspirin. Subsequently, subjects were returned for a final assessment (“Final”) 2 weeks after 325 mg/day aspirin. This dose of aspirin was chosen to ensure complete suppression of platelet COX-1 activity in each participant. The 3-hour timepoint was chosen to measure the maximal inhibitory effect of aspirin.
(§1) Platelet function studies. Before each visit, subjects were asked to fast and to refrain from tobacco (during the preceding 24 hrs) and alcohol or intensive exercise on the day of testing. Phlebotomy was performed after 10 minutes of resting supine with minimal trauma or stasis at the venipuncture site using a 21-gauge needle into 3.2% sodium citrate tubes. The focus of these studies was around NCDPF and thus, the NCDPF assays were defined as the following: PFA100, and epinephrine, ADP, and collagen induced LTA. […] Serum thromboxane B2 and AA induced aggregation were chosen as measures of COX-1 activity and also added in vitro aspirin to the AA aggregation assay to further assess for any evidence of unsuppressed COX-1 activity.
(§2) Light transmittance aggregometry. Light transmittance aggregometry (LTA) was performed as previously described (Born (1964) Nature 202:95-96) using the following agonists: arachidonic acid (AA, Chrono-log, 0.5 mM), epinephrine (Chrono-Log, 10, 1, and 0.5 μM), ADP (Chrono-Log, 10, 5, and 1 μM), and collagen (Chrono-Log, 5 and 2 μg/ml). The area under the LTA curve (AUC) was chosen as the primary measure of aggregation because the AUC captures several features of the aggregometry curve that are each sensitive to the effects of aspirin: slope, maximal aggregation, and final aggregation. To standardize AUC measurements across individuals and visits the test duration was fixed at 12 minutes for epinephrine and six minutes for collagen, AA, and ADP.
Platelet Function Analyzer. PFA100 closure time with the use of the collagen/epinephrine cartridge was performed. […] Briefly, citrated whole blood was placed in the PFA100 chamber and blood was aspirated through an aperture in a collagen/epinephrine coated membrane. The amount of time (in seconds[s], up to a maximum of 300 s) until blood ceased to flow through the membrane aperture was recorded as the final result.
Platelet Function Score. […] A platelet function score was derived from a principal components analysis (PCA) of all platelet function measurements made in the HV1 cohort. PCA was chosen to quantify this biological factor. PCA is an unbiased, mathematical technique for reducing a collection of measurements down to a single “meta-measurement” that best describes the aggregate behavior of the set. For example, in the biological sciences, PCA can quantify population substructure in genome wide association studies, patterns of gene expression in microarray experiments, and metabolic pathways in metabolomic studies. In the present study, the input into the PCA was the following set of non-imputed measures from the HV1 cohort: the PFA100 closure time and the AUC from each concentration of ADP, epinephrine, and collagen LTA.

COX-1 activity = assay: Serum thromboxane B2 ELISA; type: in vivo, human; conditions: HV2; Final visit after 4 weeks 325 mg/day aspirin; range 0.1-2.0
Protocol: as §1

[3] = system: non COX-1 dependent platelet function (NCDPF); assay: In vitro addition of aspirin to PRP, epinephrine/ADP/collagen induced light transmittance aggregometry; type: cell-based, human; conditions: n=5 HV2 and n=15 DM on daily aspirin
Protocol: Light transmittance aggregometry. […] The area under the LTA curve (AUC) was chosen as the primary measure of aggregation because the AUC captures several features of the aggregometry curve that are each sensitive to the effects of aspirin: slope, maximal aggregation, and final aggregation. To standardize AUC measurements across individuals and visits the test duration was fixed at 12 minutes for epinephrine and six minutes for collagen, AA, and ADP.
Description of area under the curve (AUC) measurement. Using light transmittance aggregometry the percent aggregation is plotted over time to produce the upper curve similar to FIG. 21. The AUC is measured by the aggregometer over the duration of the test, which is fixed at 6 minutes for collagen and ADP and 12 minutes for epinephrine. Higher AUC values reflect higher maximal and residual aggregation, slope, and velocities.
In vitro aspirin. A stock solution of aspirin was created by dissolving acetylsalicylic acid (Sigma-Aldrich A5376) into DMSO and aliquots stored at −80 degrees Celsius. On the day of use, fresh aliquots were thawed, diluted in PBS, and stored at 4 degrees Celsius. […] The PRP was allowed to incubate with in vitro aspirin for 10 minutes at room temperature prior to the addition of agonist.

[4] = system: COX-1 dependent platelet function; assay: Arachidonic acid-induced platelet aggregation (light transmittance aggregometry), with and without in vitro aspirin; type: in vivo, human
Protocol: as §1, §2

[5] = system: RUNX1 P1 and total transcripts in purified platelets; assay: Platelet RNA RT-PCR for RUNX1 transcripts before and after aspirin exposure; type: in vivo, human; conditions: healthy volunteers, before vs after aspirin exposure
Protocol: Platelet purification and RNA isolation.
RNA was extracted from peripheral blood derived platelets using the miRvana miRNA Isolation Kit (Life Technologies) with acid-phenol chloroform (Life Technologies) separation. Due to the low concentration of available platelet RNA, concentration and integrity were assessed using the Agilent 2100 Bioanalyzer Pico chips (Agilent Technologies; Santa Clara, Calif.). The concentration was too low for accurate determination via standard spectrophotometric methods and for the Agilent Pico RIN algorithm to accurately determine a RIN quality score. As a result, quality was assessed by visualization of the Bioanalyzer lane curve. RNA samples with obvious 18S and 28S peaks, minimal degradation “noise” between peaks, and no large aberrant peaks above or below the 18S and 28S bands were selected for further analysis. […]
Concentration and integrity of available platelet RNA were assessed using Agilent 2100 Bioanalyzer Pico chips (Agilent Technologies; Santa Clara, Calif.). […] As a result, quality was assessed by visualization of the Bioanalyzer trace. […]
A loading test plate was run using 4 samples; 2 from each experimental group. […] Optimal loading would result in expression of our lowest targets of interest resulting in Cq values <35, abundant transcripts >18 and a minimal loss of low quantity samples to high RNA loading requirements. […]

CC(=O)Oc1ccccc1C(=O)O [aspirin, acetylsalicylic acid]
expression of a P1-specific RUNX1 probe set [1]: increased | expression of the remaining RUNX1 probe sets [1]: did not change | expression of two P2 RUNX1 probe sets [1]: decreased | mean difference in Pre vs. Post PFS ([2]; DM diabetics, 95% CI 3.6-4.8): 4.2 | mean difference Post and Final PFS ([2]; HV1, after two weeks of 325 mg/day aspirin, shifted higher, CI 0.1-0.8, p=0.01): 0.5 | mean difference in Pre vs. Post PFS ([2]; HV1 healthy volunteers, 95% CI 3.0-3.7): 3.4 | mean difference between Post and Final PFS ([2]; HV2, after four weeks of 325 mg/day aspirin, shift to higher PFS, CI 0.2-1.2, p=0.004): 0.7 | mean difference in Pre vs. Post PFS ([2]; HV2 healthy volunteers, 95% CI 4.5-5.2): 4.8 | Post PFS ([2]; HV2 subjects that decreased their Final PFS): 1.68 | Post PFS ([2]; HV2 subjects that increased their Final PFS): −1.0 | serum thromboxane B2 mean concentration (COX-1 activity): 0.3 ng/mL | mean change aggregation with in vitro aspirin ([3]; ADP 5 μM, CI −6.9-2.4%, p=0.3): −2.3% | mean change aggregation with in vitro aspirin ([3]; collagen 2 mg/ml, CI −6.9, 10.0, p=0.71): 1.5% | mean change aggregation with in vitro aspirin ([3]; epinephrine 0.5, CI −0.8-4.8%, p=0.2): 2.0% | AAA median % aggregation ([4]; HV2 and DM subjects, Final visit on daily 325 mg aspirin, range 0-7%): 3.0% | effect of in vitro addition of aspirin on AAA ([4]; in vitro aspirin 53 μM added after 325 mg oral dose, HV2 and DM): no further effect | COX-1 dependent platelet function, as assessed by AAA ([4]; single 325 mg dose, all HV2 and DM subjects, AA 0.5 mM): effectively suppressed | change in total RUNX1 gene expression [5]: minimal changes | up (or down) regulation in P1 RUNX1 expression [5]: ≤ 5 fold

From patent US11008619B2, “Diagnostic markers for platelet function and methods of use” (Duke University, priority 2012, dated 2021)
